The results in this text go back to US7998924B2, “Compounds that bind to p185 and methods of using the same” (The Trustees of The University of Pennsylvania, priority 2001, dated 2011).

The subject of data set [1] is T6-17 cells. Particulars: for % inhibition of T6-17 cell proliferation in MTT assays: 1 μg/mL of peptides for 48 h. As for the experimental part:
(See reference 46 below.) HER2-expressing transformed tumor cells (T6-17) were used for this purpose. […] Each value represents an average of at least four samples.
The MTT assay has been used for measuring cell growth as previously described in ref 446. Briefly, T6-17 cells were seeded in 96-well plates overnight in DMEM containing 10% FBS (1000 per well). T6-17 is derived from NIH3T3 by overexpressing the human HER2 receptor. Cells were cultured in 100 μL of fresh medium containing 1 μg/mL of peptides for 48 h. […] A total of 25 μL of MTT solution (5 mg/mL in PBS) was added to each well, and after 2 h of incubation at 37° C., 100 μA of the extraction buffer (20% w/v of SDS, 50% N,N-dimethyl formamide, pH 4.7) were added. After an overnight incubation at 37° C., the optical density at 600 rim was measured using an ELISA reader.

Data set [2] has as its target T1, HER2 receptor (Homo sapiens, UniProt P04626).
T1 construct: Recombinant purified HER2 receptor composed of the ectodomain of HER2 fused to the Fc of human IgG; purchased Xcyte Therapeutics, Seattle, Wash; (provided by Dr. Che Law; a gift, not a catalogue product)
As to the kind of experiment: Biacore (surface plasmon resonance) binding of peptides to immobilized HER2. Particulars: for kon: read-out: binding to HER2 kon. An excerpt:
Binding of AHNP has been studies by means of surface plasmon resonance (Biacore) technology. In Biacore experiments, one of the interacting molecules (termed the ligand) is immobilized on the sensor surface, and the other interactant (termed the analyte) is continuously flown over that surface in a micro-flow cell. The interaction between the ligand and the analyte are monitored using a light source that is reflected at the immobilized chip. Binding of the analyte to the immobilized ligand changes the resonance angle of the reflected light due to changes in the refractive index of the surface. The response is plotted in real time in the form of sensorgram curves. The advantage with this approach is its sensitivity, ease of use, and ability to perform experiments with few microgram quantities of proteins and peptides. In addition, the kinetic binding studies reveal association and disassociation rates of the analyte which may be more relevant for understanding the pharmacokinetics of drug-receptor interactions.
Binding experiments were performed with the surface plasmon resonance based biosensor instrument Biacore 3000 (Biacore AB, Uppsala, Sweden) at 25° C. Recombinant purified HER2 receptor composed of the ectodomain of HER2 fused to the Fc of human IgG was provided by Dr. Che Law, Xcyte Therapeutics, Seattle, Wash. Immobilization of HER2 in the sensor surface was performed following the standard amine coupling procedure according to manufacturer's instructions. Briefly, 35 pit of a solution containing 0.2M N-ethyl-N-(dimethylaminopropyl) carbodiimide (EDC) and 0.05 M N-hydroxysuccinimide (NHS) were injected at a flow rate of 5 μL/min to activate carboxyl groups on the sensor chip surface. HER2 (40 ng/mL in 10 mM NaOAc buffer, pH 5.0) was flowed over the chip surface at a flow rate of 20 μL/min until the desired level bound protein was reached. Unreacted protein was washed out and unreacted activated groups were blocked by the injection of 35 μL of 1 M ethanolamine at 5 μL/min. […] A reference surface was generated simultaneously under the same conditions but without HER2 injection and used as a blank to correct for instrument and buffer artifacts. Peptides were injected at variable concentrations at 20 μL/min flow rate and binding to the HER2 receptor immobilized on the chip was monitored in real time. Each sensorgram consists of an association phase (first 240 s), reflecting binding of the injected peptide to the receptor, followed by a dissociation phase (300 s), during which the running buffer is passed over the chip and the bound peptide is being washed off the receptor surface.

Data set [3] is described as follows: Peptide solubility in PBS buffer at 1 mg/mL. Particulars: pH 7.4, 1 mg/mL. The data set is classed as physicochemical. As for the experimental part:
These peptides could be readily dissolved in the PBS buffer, pH 7.4, at 1 mg/mL concentration without adjustment of pH.

Data set [4] has as its system MCF-7 parental strain (MCF/Par) p185-expressing cells. As to the kind of experiment: Combination treatment with tamoxifen, growth inhibition, MCF-7 parental. The data set is classed as cell-based. Particulars: peptide 1 μg/ml plus tamoxifen.
In data set [5] the test system is MCF-7/H2 p185-overexpressing cells. As to the kind of experiment: Combination treatment with tamoxifen, growth inhibition, MCF-7/H2. The data set is classed as cell-based. Particulars: peptide 1 μg/ml plus tamoxifen.
Setting [6] is: Biacore, immobilized HER2, 25° C., read-out: binding to HER2 KD.
[7] abbreviates: Biacore, immobilized HER2, 25° C., read-out: binding to HER2 koff.
The mark [8] stands for this setting: Biacore, immobilized HER2, 25° C.

Entries after “also recorded” stand apart in the source; their conditions may differ. Read-outs that look alike come from different tables or passages of the source. Positions of bridges follow the written chain, without caps; N, C: chain ends. Residues, ends and D or L forms follow the SMILES beside them. No end group written: not given here.

T1 sequence (P04626 23-652 limits assumed): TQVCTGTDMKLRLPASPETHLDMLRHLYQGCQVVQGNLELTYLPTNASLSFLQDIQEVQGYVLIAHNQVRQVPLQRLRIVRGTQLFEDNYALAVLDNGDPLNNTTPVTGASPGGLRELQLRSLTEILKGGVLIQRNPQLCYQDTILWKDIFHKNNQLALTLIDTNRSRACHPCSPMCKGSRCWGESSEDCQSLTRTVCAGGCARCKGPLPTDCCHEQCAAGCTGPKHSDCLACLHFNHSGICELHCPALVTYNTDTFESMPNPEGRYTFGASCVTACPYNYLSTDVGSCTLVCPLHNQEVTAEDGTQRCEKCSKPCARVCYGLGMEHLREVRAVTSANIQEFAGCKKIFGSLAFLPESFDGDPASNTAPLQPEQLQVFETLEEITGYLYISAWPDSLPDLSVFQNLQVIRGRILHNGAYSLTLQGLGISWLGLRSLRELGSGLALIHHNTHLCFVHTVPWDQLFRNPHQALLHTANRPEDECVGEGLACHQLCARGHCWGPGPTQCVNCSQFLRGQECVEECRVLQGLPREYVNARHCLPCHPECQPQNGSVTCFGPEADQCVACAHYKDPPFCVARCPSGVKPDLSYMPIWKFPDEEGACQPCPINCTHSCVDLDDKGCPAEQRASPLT

As to `CSCC[C@H](NC(=O)[C@H](Cc1ccc(O)cc1)NC(=O)[C@@H]1CSSC[C@H](NC(=O)[C@@H](N)Cc2ccccc2)C(=O)N[C@@H](CC(=O)O)C(=O)NCC(=O)N[C@@H](Cc2ccccc2)C(=O)N[C@@H](Cc2ccc(O)cc2)C(=O)N[C@@H](C)C(=O)N1)C(=O)N[C@@H](CC(=O)O)C(=O)N[C@H](C(=O)O)C(C)C` [Peptide 2], in data set [1], the “% inhibition of T6-17 cell proliferation in MTT assays” value was 22.3%. The “fold increase in binding affinity for HER2 relative to the comparator peptide” value in data set [2] (2 vs linear 9, AHNP vs 2, 3 vs AHNP) was “more than 5 fold”. The Kd in data set [2] (setting [6]) came out at 650 nM. Moreover, the koff in data set [2] (read-out: binding to HER2 koff) was found to be 0.000643 s⁻¹. In addition, the kon in data set [2] came to 990 M⁻¹ s⁻¹. In addition, in data set [3], the solubility is < 1000 µg/mL and the “solubility (in words)” value is reported as “no improvement in solubility”.

In the case of `CSCC[C@H](NC(=O)[C@H](Cc1ccc(O)cc1)NC(=O)[C@@H]1CSSC[C@H](NC(=O)[C@@H](N)Cc2ccc(O)cc2)C(=O)N[C@@H](CC(=O)O)C(=O)NCC(=O)N[C@@H](Cc2ccccc2)C(=O)N[C@@H](Cc2ccc(O)cc2)C(=O)N[C@@H](C)C(=O)N1)C(=O)N[C@@H](CC(=O)O)C(=O)N[C@H](C(N)=O)C(C)C` [Peptide 3] (H-YCDGFYACYMDV-NH2; disulfide 2-8; N-terminus assumed), the “growth inhibition in combination with tamoxifen (in words)” value in data set [4] and in data set [5] was “enhanced growth inhibition” in each case. For the same molecule, in data set [1] (T6-17 cells), the “biological activity in the MTT assay relative to comparator (in words)” value is “almost twice the activity of AHNP”. Moreover, the koff in data set [2] (setting [7]) was 0.000294 s⁻¹; in data set [2] (Biacore, immobilized HER2, read-out: koff), 0.000294 s⁻¹. Moreover, the kon in data set [2] (setting [8]) amounted to 1960 M⁻¹ s⁻¹. In addition, the Kd in data set [2] (Biacore, read-out: receptor-binding affinity KD) was determined as 150 nM. Besides, the solubility in data set [3] was < 1000 µg/mL.

With `CSCC[C@H](NC(=O)[C@@H](Cc1ccc(O)cc1)NC(=O)[C@@H]1CSSC[C@H](NC(=O)[C@H](N)Cc2ccccc2)C(=O)N[C@@H](CC(=O)O)C(=O)NCC(=O)N[C@@H](Cc2ccccc2)C(=O)N[C@@H](Cc2ccc(O)cc2)C(=O)N[C@@H](C)C(=O)N1)C(=O)N[C@@H](CC(=O)O)C(=O)N[C@H](C(N)=O)C(C)C` [Peptide 4], the Kd in data set [2] (setting [6]) turned out to be 350 nM. Further, in data set [2] (setting [7]), the koff is 0.000603 s⁻¹. Besides, in data set [2] (setting [8]), the kon is 1720 M⁻¹ s⁻¹. Moreover, in data set [3], the solubility is > 1000 µg/mL and the “solubility (in words)” value was “much higher solubility”.

Consider `CSCC[C@H](NC(=O)[C@H](Cc1ccc(O)cc1)NC(=O)[C@@H]1CSSC[C@H](NC(=O)[C@@H](N)Cc2ccccc2)C(=O)N[C@@H](CC(=O)O)C(=O)NCC(=O)N[C@@H](Cc2ccccc2)C(=O)N[C@@H](Cc2ccc(O)cc2)C(=O)N[C@@H](C)C(=O)N1)C(=O)N[C@@H](CC(=O)O)C(=O)N[C@H](C(=O)N[C@@H](CCCCN)C(N)=O)C(C)C` [Peptide 5] (H-FCDGFYACYMDVK-NH2; disulfide 2-8), for which the Kd in data set [2] (setting [6]) came to 830 nM. Moreover, in data set [2] (relative to peptide 7), the “lower receptor affinity than 7” value was 14%. Moreover, in data set [3], the solubility was < 1000 µg/mL and the “solubility (in words)” value is “no improvement in solubility”.

Regarding `CC(C)[C@H](NC(=O)[C@H](CC(=O)O)NC(=O)[C@H](CCCCN)NC(=O)[C@H](Cc1ccc(O)cc1)NC(=O)[C@@H]1CSSC[C@H](NC(=O)[C@@H](N)Cc2ccccc2)C(=O)N[C@@H](CC(=O)O)C(=O)NCC(=O)N[C@@H](Cc2ccccc2)C(=O)N[C@@H](Cc2ccc(O)cc2)C(=O)N[C@@H](C)C(=O)N1)C(=O)O` [Peptide 6] (H-FCDGFYACYKDV-OH; disulfide 2-8; N-terminus assumed), the dissociation constant (Kd) in data set [2] (setting [6]) stood at 5700 nM. Moreover, the koff in data set [2] (setting [7]) is 0.00125 s⁻¹. In data set [2] (setting [8]), the kon amounted to 219 M⁻¹ s⁻¹. Moreover, the “fold decrease in binding affinity for HER2” value in data set [2] (Lys-containing analogues vs parent peptide) came out at 8.8 fold. For the same molecule, the “decrease in binding affinity” value in data set [2] (Met replaced with Lys) is on record as “about 1 order of magnitude”. Moreover, in data set [3], the solubility was > 1000 µg/mL and the “solubility (in words)” value is on record as “much higher solubility”.

On to `CSCC[C@H](NC(=O)[C@H](Cc1ccc(O)cc1)NC(=O)[C@@H]1CSSC[C@H](NC(=O)[C@H](Cc2ccccc2)NC(=O)CN)C(=O)N[C@@H](CC(=O)O)C(=O)NCC(=O)N[C@@H](Cc2ccccc2)C(=O)N[C@@H](Cc2ccc(O)cc2)C(=O)N[C@@H](C)C(=O)N1)C(=O)N[C@@H](CC(=O)O)C(=O)N[C@H](C(=O)O)C(C)C` [Peptide 7] (H-GFCDGFYACYMDV-OH; disulfide 3-9), for which the equilibrium dissociation constant (Kd) in data set [2] (setting [6]) came out at 730 nM. In addition, the koff in data set [2] (setting [7]) worked out at 0.000808 s⁻¹. The kon in data set [2] (setting [8]) is 1110 M⁻¹ s⁻¹. In data set [3], the solubility is > 1000 µg/mL and the “solubility (in words)” value is given as “increased solubility; also recorded: good solubility”.

`CSCC[C@H](NC(=O)[C@H](Cc1ccc(O)cc1)NC(=O)[C@@H]1CSSC[C@H](NC(=O)[C@@H](N)Cc2ccccc2)C(=O)NCC(=O)N[C@@H](CC(=O)O)C(=O)NCC(=O)N[C@@H](Cc2ccccc2)C(=O)N[C@@H](Cc2ccc(O)cc2)C(=O)N[C@@H](C)C(=O)N1)C(=O)N[C@@H](CC(=O)O)C(=O)N[C@H](C(=O)O)C(C)C` [Peptide 8] (H-FCGDGFYACYMDV-OH; disulfide 2-9; N-terminus assumed): the koff in data set [2] (setting [7]) amounted to 0.000701 s⁻¹. Moreover, the kon in data set [2] (setting [8]) was 922 M⁻¹ s⁻¹. Besides, in data set [3], the solubility was > 1000 µg/mL and the “solubility (in words)” value was “much higher solubility”.

Take `CSCC[C@H](NC(=O)[C@H](Cc1ccc(O)cc1)NC(=O)[C@H](CS)NC(=O)[C@H](C)NC(=O)[C@H](Cc1ccc(O)cc1)NC(=O)[C@H](Cc1ccccc1)NC(=O)CNC(=O)[C@H](CC(=O)O)NC(=O)[C@H](CS)NC(=O)[C@@H](N)Cc1ccccc1)C(=O)N[C@@H](CC(=O)O)C(=O)N[C@H](C(=O)O)C(C)C` [Peptide 9]: the “% inhibition of T6-17 cell proliferation in MTT assays” value in data set [1] stood at 12.8%. In data set [2], the Kd was 3560 nM and the kon worked out at 298 M⁻¹ s⁻¹. Further, the koff in data set [2] (read-out: binding to HER2 koff) turned out to be 0.00106 s⁻¹. In data set [3], the solubility is > 1000 µg/mL and the “solubility (in words)” value is listed as “much higher solubility”.

On to “FCGDGFYACYMDV-NH2 (disulfide 2-9 (inferred)) [SEQ ID NO: 143]”, for which the “growth inhibition in combination with tamoxifen (in words)” value in data set [4] and in data set [5] was “enhanced in vitro inhibition of proliferation” in each case.
